Measured values as given in ChEMBL document CHEMBL3885861, “Open TG-GATES”.

Organism: Rattus norvegicus
Assay: Open TG-GATES - Regimen: Single
Type: toxicity, organism-based, Sprague-Dawley
Set-up: regimen Single, gender Male, age 6 weeks
Details: in vivo, po, 0 mg/kg, route gavage, dose level Control; for Bas / Eos / Fbg / Hb / Ht / Lym / MCHC / MCV / Mono / PT / Plat / RBC / WBC / APTT: tissue Blood; for KIDNEY_L / KIDNEY_R / KIDNEY_TOTAL: tissue Kidney; for LIVER: tissue Liver; for ALP / ALT / AST / CRE / Ca / Cl / DBIL / GLC / K / LDH / Na / PL / RALB / TBIL / TC / TG / TP / gamma-GTP: tissue Plasma

## COc1ccc([C@@H]2Sc3ccccc3N(CCN(C)C)C(=O)[C@@H]2OC(C)=O)cc1 [DILTIAZEM]
3 h
  TERMINAL_BW: 181.4 g
  Bas: 0%
  Eos: 0.8%
  Fbg: 269 mg/dL
  Hb: 13 g/dL
  Ht: 40.2%
  Lym: 76.8%
  MCHC: 32.3%
  MCV: 67 fL
  Mono: 3.4%
  PT: 14.3 s
  Plat: 127.1 x10_4/uL
  RBC: 600.6 x10_4/ul
  WBC: 84.6 x10_2/uL
  KIDNEY_L: 0.9 g
  KIDNEY_R: 0.9 g
  KIDNEY_TOTAL: 1.8 g
  LIVER: 8.3 g
  ALP: 1273 IU/L
  ALT: 43.2 IU/L
  AST: 75.4 IU/L
  CRE: 0.2 mg/dL
  Ca: 10.9 mg/dL
  Cl: 106.8 meq/L
  DBIL: 0.01 mg/dL
  GLC: 178.4 mg/dL
  K: 4.4 meq/L
  LDH: 79.2 IU/L
  Na: 142 meq/L
  PL: 141 mg/dL
  RALB: 2.5 g/dL
  TBIL: 0.04 mg/dL
  TC: 83.2 mg/dL
  TG: 38.4 mg/dL
  TP: 5.1 g/dL
  gamma-GTP: 1 IU/L
6 h
  TERMINAL_BW: 181.1 g
  APTT: 18.2 s
  Bas: 0%
  Eos: 0.4%
  Fbg: 280 mg/dL
  Hb: 13.3 g/dL
  Ht: 40.7%
  Lym: 78%
  MCHC: 32.6%
  MCV: 66.8 fL
  Mono: 2.6%
  PT: 14.5 s
  Plat: 116.6 x10_4/uL
  RBC: 609.6 x10_4/ul
  WBC: 77 x10_2/uL
  KIDNEY_L: 0.8 g
  KIDNEY_R: 0.8 g
  KIDNEY_TOTAL: 1.7 g
  LIVER: 7.8 g
  ALP: 1331.4 IU/L
  ALT: 40.2 IU/L
  AST: 69.4 IU/L
  CRE: 0.2 mg/dL
  Ca: 10.8 mg/dL
  Cl: 106.6 meq/L
  DBIL: 0.006 mg/dL
  GLC: 171.6 mg/dL
  K: 4.1 meq/L
  LDH: 61.4 IU/L
  Na: 143 meq/L
  PL: 129.8 mg/dL
  RALB: 2.5 g/dL
  TBIL: 0.038 mg/dL
  TC: 71.8 mg/dL
  TG: 43.2 mg/dL
  TP: 5.1 g/dL
  gamma-GTP: 1 IU/L
9 h
  TERMINAL_BW: 180.5 g
  APTT: 17 s
  Bas: 0%
  Eos: 0.6%
  Fbg: 313 mg/dL
  Hb: 13.3 g/dL
  Ht: 41.1%
  Lym: 75.4%
  MCHC: 32.3%
  MCV: 66.5 fL
  Mono: 2.4%
  PT: 14.5 s
  Plat: 126.8 x10_4/uL
  RBC: 619.2 x10_4/ul
  WBC: 78.7 x10_2/uL
  KIDNEY_L: 0.8 g
  KIDNEY_R: 0.8 g
  KIDNEY_TOTAL: 1.7 g
  LIVER: 6.9 g
  ALP: 1820.2 IU/L
  ALT: 43 IU/L
  AST: 75.4 IU/L
  CRE: 0.2 mg/dL
  Ca: 10.6 mg/dL
  Cl: 107 meq/L
  DBIL: 0.01 mg/dL
  GLC: 178 mg/dL
  K: 4.1 meq/L
  LDH: 71.8 IU/L
  Na: 142.2 meq/L
  PL: 119.4 mg/dL
  RALB: 2.5 g/dL
  TBIL: 0.038 mg/dL
  TC: 67.2 mg/dL
  TG: 28.4 mg/dL
  TP: 5.2 g/dL
  gamma-GTP: 1.8 IU/L
24 h
  TERMINAL_BW: 198.1 g
  Bas: 0%
  Eos: 1%
  Fbg: 259.8 mg/dL
  Hb: 13 g/dL
  Ht: 39.6%
  Lym: 74.6%
  MCHC: 32.9%
  MCV: 64.9 fL
  Mono: 3.4%
  PT: 14.8 s
  Plat: 119.2 x10_4/uL
  RBC: 610.2 x10_4/ul
  WBC: 90.7 x10_2/uL
  KIDNEY_L: 0.9 g
  KIDNEY_R: 0.9 g
  KIDNEY_TOTAL: 1.8 g
  LIVER: 8.9 g
  ALT: 48 IU/L
  AST: 77 IU/L
  CRE: 0.2 mg/dL
  Ca: 11.1 mg/dL
  Cl: 107 meq/L
  DBIL: 0.014 mg/dL
  GLC: 187.4 mg/dL
  K: 4.2 meq/L
  LDH: 88.4 IU/L
  Na: 143.8 meq/L
  PL: 148.6 mg/dL
  RALB: 2.6 g/dL
  TBIL: 0.03 mg/dL
  TC: 76.6 mg/dL
